Patent US20100184674A1, “PROADRENOMEDULLIN ALONE OR IN COMBINATION WITH BIG GASTRIN I AS A THERAPEUTIC AGENT” (priority 2007, published 2010)
Where no end group is shown, it is not given here. [ ]: non-standard residue; d: D form. pGlu = O=C1CC[C@@H](C(=O)O)N1

System: drug-resistant Mycobacterium tuberculosis
Format: cell-based
Conditions: 10 micrograms per ml; seven days; strain resistant against PAS, streptomycin and isoniazid

| Substance | inhibition of the growth of Mycobacterium tuberculosis [%] |
| --- | --- |
| Pyr-Leu-Gly-Pro-Gln-Gly-Pro-Pro-His-Leu-Val-Ala-Asp-Pro-Ser-Lys-Lys-Gln-Gly-Pro-Trp-Leu-Glu-Glu-Glu-Glu-Glu-Ala-Tyr-Gly-Trp-Met-Asp-Phe-NH2 ([pGlu]LGPQGPPHLVADPSKKQGPWLEEEEEAYGWMDF-NH2; SMILES CSCC[C@H](NC(=O)[C@H](Cc1c[nH]c2ccccc12)NC(=O)CNC(=O)[C@H](Cc1ccc(O)cc1)NC(=O)[C@H](C)NC(=O)[C@H](CCC(=O)O)NC(=O)[C@H](CCC(=O)O)NC(=O)[C@H](CCC(=O)O)NC(=O)[C@H](CCC(=O)O)NC(=O)[C@H](CCC(=O)O)NC(=O)[C@H](CC(C)C)NC(=O)[C@H](Cc1c[nH]c2ccccc12)NC(=O)[C@@H]1CCCN1C(=O)CNC(=O)[C@H](CCC(N)=O)NC(=O)[C@H](CCCCN)NC(=O)[C@H](CCCCN)NC(=O)[C@H](CO)NC(=O)[C@@H]1CCCN1C(=O)[C@H](CC(=O)O)NC(=O)[C@H](C)NC(=O)[C@@H](NC(=O)[C@H](CC(C)C)NC(=O)[C@H](Cc1c[nH]cn1)NC(=O)[C@@H]1CCCN1C(=O)[C@@H]1CCCN1C(=O)CNC(=O)[C@H](CCC(N)=O)NC(=O)[C@@H]1CCCN1C(=O)CNC(=O)[C@H](CC(C)C)NC(=O)[C@@H]1CCC(=O)N1)C(C)C)C(=O)N[C@@H](CC(=O)O)C(=O)N[C@@H](Cc1ccccc1)C(N)=O) [Peptide 2] | 100 |
| Ala-Arg-Leu-Asp-Val-Ala-Ser-Glu-Phe-Arg-Lys-Lys-Trp-Asn-Lys-Trp-Ala-Leu-Ser-Arg-NH2 (ARLDVASEFRKKWNKWALSR-NH2) [Peptide 1] | 100 |
